ChEMBL document CHEMBL3045793, “The synthesis, anti-inflammatory and antimicrobial activity evaluation of novel thioanalogs of 3,4-dihydrothiopyrimidin-2(1H)-one derivatives of N-aryl urea” (2012)
≈ marks a conversion by molar mass, not a printed value. Calls of active or inactive are those of the source. The calls are words filed in the database; no cut-off is given here.

Columns and labels:
Fusarium solani [1] = assay: Antifungal activity against Fusarium solani up to 200 ug/ml by agar well diffusion method; assay type: functional, organism-based
Bacillus subtilis [2] = assay: Antibacterial activity against Bacillus subtilis up to 200 ug/ml by agar well diffusion method; assay type: functional, organism-based
Aspergillus flavus [3] = assay: Antifungal activity against Aspergillus flavus by agar well diffusion method; assay type: functional
Aspergillus niger [4] = assay: Antifungal activity against Aspergillus niger by agar well diffusion method; assay type: functional
Candida albicans [5] = assay: Antifungal activity against Candida albicans by agar well diffusion method; assay type: functional
Escherichia coli [6] = assay: Antibacterial activity against Escherichia coli by agar well diffusion method; assay type: functional
Salmonella typhimurium [7] = assay: Antibacterial activity against Salmonella enterica subsp. enterica serovar Typhimurium by agar well diffusion method; assay type: functional
Staphylococcus aureus [8] = assay: Antibacterial activity against Staphylococcus aureus by agar well diffusion method; assay type: functional
THP-1 [9] = assay: Anti-inflammatory activity in Homo sapiens (human) THP1 cells assessed as inhibition of LPS-induced IL-6 production preincubated at 10 uM for 30 min before LPS treatment measured after 24 hr by ELISA; assay type: functional
THP-1 [10] = assay: Anti-inflammatory activity in Homo sapiens (human) THP1 cells assessed as inhibition of LPS-induced TNF-alpha production preincubated at 10 uM for 30 min before LPS treatment measured after 24 hr by ELISA; assay type: functional
Fusarium solani [11] = assay: Antifungal activity against Fusarium solani by agar well diffusion method; assay type: functional
Bacillus subtilis [12] = assay: Antibacterial activity against Bacillus subtilis by agar well diffusion method; assay type: functional
Aspergillus flavus [13] = assay: Antifungal activity against Aspergillus flavus up to 200 ug/ml by agar well diffusion method; assay type: functional, organism-based
Aspergillus niger [14] = assay: Antifungal activity against Aspergillus niger up to 200 ug/ml by agar well diffusion method; assay type: functional, organism-based
Candida albicans [15] = assay: Antifungal activity against Candida albicans up to 200 ug/ml by agar well diffusion method; assay type: functional, organism-based
Salmonella typhimurium [16] = assay: Antibacterial activity against Salmonella enterica subsp. enterica serovar Typhimurium up to 200 ug/ml by agar well diffusion method; assay type: functional, organism-based
Escherichia coli [17] = assay: Antibacterial activity against Escherichia coli up to 200 ug/ml by agar well diffusion method; assay type: functional, organism-based
Staphylococcus aureus [18] = assay: Antibacterial activity against Staphylococcus aureus up to 200 ug/ml by agar well diffusion method; assay type: functional, organism-based

| MIC (Aspergillus flavus [3]) | MIC (Aspergillus niger [4]) | MIC (Candida albicans [5]) | MIC (Escherichia coli [6]) | MIC (Salmonella typhimurium [7]) | MIC (Staphylococcus aureus [8]) | MIC (Fusarium solani [11]) | MIC (Bacillus subtilis [12]) | Structure (SMILES) | Activity (Fusarium solani [1]) | Activity (Bacillus subtilis [2]) | inhibition at 10 µM (THP-1 [9]) | inhibition at 10 µM (THP-1 [10]) | Activity (Aspergillus flavus [13]) | Activity (Aspergillus niger [14]) | Activity (Candida albicans [15]) | Activity (Salmonella typhimurium [16]) | Activity (Escherichia coli [17]) | Activity (Staphylococcus aureus [18]) |
| --- | --- | --- | --- | --- | --- | --- | --- | --- | --- | --- | --- | --- | --- | --- | --- | --- | --- | --- |
| 90 µg/mL (≈ 170 µM) | 90 µg/mL (≈ 170 µM) | 85 µg/mL (≈ 161 µM) | 90 µg/mL (≈ 170 µM) | 90 µg/mL (≈ 170 µM) | 65 µg/mL (≈ 123 µM) | – | – | CCOC(=O)C1=C(C)NC(=S)NC1c1ccc(NC(=S)Nc2c(Cl)cccc2C(F)(F)F)cc1 (stereo not given) | inactive | inactive | 62% | 46% | – | – | – | – | – | – |
| 60 µg/mL (≈ 126 µM) | 90 µg/mL (≈ 189 µM) | 65 µg/mL (≈ 137 µM) | 65 µg/mL (≈ 137 µM) | 65 µg/mL (≈ 137 µM) | 40 µg/mL (≈ 84.2 µM) | 60 µg/mL (≈ 126 µM) | 80 µg/mL (≈ 168 µM) | CCOC(=O)C1=C(C)NC(=S)NC1c1ccc(NC(=S)Nc2c(C)cccc2Cl)cc1 (stereo not given) | – | – | 55% | 32% | – | – | – | – | – | – |
| – | – | – | 10 µg/mL (≈ 21.9 µM) | 25 µg/mL (≈ 54.8 µM) | 10 µg/mL (≈ 21.9 µM) | – | 40 µg/mL (≈ 87.6 µM) | CCOC(=O)C1=C(C)NC(=S)NC1c1ccc(NC(=S)Nc2ccc(OC)cc2)cc1 (stereo not given) | – | – | 48% | 0% | – | – | – | – | – | – |
| 65 µg/mL (≈ 202 µM) | 65 µg/mL (≈ 202 µM) | 30 µg/mL (≈ 93.4 µM) | 45 µg/mL (≈ 140 µM) | 30 µg/mL (≈ 93.4 µM) | 40 µg/mL (≈ 124 µM) | 75 µg/mL (≈ 233 µM) | 55 µg/mL (≈ 171 µM) | CCOC(=O)C1=C(C)NC(=S)NC1c1ccc([N+](=O)[O-])cc1 (stereo not given) | – | – | 3% | 0% | – | – | – | – | – | – |
| – | – | – | – | – | – | – | – | CCCCc1ccc(NC(=S)Nc2ccc(C3NC(=S)NC(C)=C3C(=O)OCC)cc2)cc1 (stereo not given) | inactive | inactive | 8% | 0% | inactive | inactive | inactive | inactive | inactive | inactive |
| 80 µg/mL (≈ 156 µM) | 30 µg/mL (≈ 58.5 µM) | 55 µg/mL (≈ 107 µM) | 40 µg/mL (≈ 78 µM) | 45 µg/mL (≈ 87.8 µM) | 35 µg/mL (≈ 68.3 µM) | 45 µg/mL (≈ 87.8 µM) | 55 µg/mL (≈ 107 µM) | CCOC(=O)C1=C(C)NC(=S)NC1c1ccc(NC(=S)Nc2c(F)cccc2C(F)(F)F)cc1 (stereo not given) | – | – | 30% | 0% | – | – | – | – | – | – |
| 35 µg/mL (≈ 69.6 µM) | 60 µg/mL (≈ 119 µM) | 40 µg/mL (≈ 79.6 µM) | 85 µg/mL (≈ 169 µM) | 65 µg/mL (≈ 129 µM) | 55 µg/mL (≈ 109 µM) | 45 µg/mL (≈ 89.5 µM) | 60 µg/mL (≈ 119 µM) | CCOC(=O)C1=C(C)NC(=S)NC1c1ccc(NC(=O)Nc2ccccc2Oc2ccccc2)cc1 (stereo not given) | – | – | 42% | 0% | – | – | – | – | – | – |
| 15 µg/mL (≈ 29.4 µM) | 30 µg/mL (≈ 58.8 µM) | 10 µg/mL (≈ 19.6 µM) | 35 µg/mL (≈ 68.6 µM) | 10 µg/mL (≈ 19.6 µM) | 45 µg/mL (≈ 88.1 µM) | 10 µg/mL (≈ 19.6 µM) | 20 µg/mL (≈ 39.2 µM) | CCOC(=O)C1=C(C)NC(=S)NC1c1ccc(NC(=S)Nc2ccccc2OC(F)(F)F)cc1 (stereo not given) | – | – | 54% | 27% | – | – | – | – | – | – |
| 15 µg/mL (≈ 30.3 µM) | 10 µg/mL (≈ 20.2 µM) | 10 µg/mL (≈ 20.2 µM) | 10 µg/mL (≈ 20.2 µM) | 30 µg/mL (≈ 60.7 µM) | 10 µg/mL (≈ 20.2 µM) | 10 µg/mL (≈ 20.2 µM) | 15 µg/mL (≈ 30.3 µM) | CCOC(=O)C1=C(C)NC(=S)NC1c1ccc(NC(=S)Nc2ccc(C(F)(F)F)cc2)cc1 (stereo not given) | – | – | 48% | 8% | – | – | – | – | – | – |
| – | – | – | – | – | 80 µg/mL (≈ 167 µM) | 95 µg/mL (≈ 198 µM) | – | CCOC(=O)C1=C(C)NC(=S)NC1c1ccc(NC(=S)Nc2ccc(F)c(Cl)c2)cc1 (stereo not given) | – | inactive | 58% | 0% | inactive | inactive | inactive | inactive | inactive | – |
| – | 90 µg/mL (≈ 170 µM) | 85 µg/mL (≈ 161 µM) | 80 µg/mL (≈ 151 µM) | 90 µg/mL (≈ 170 µM) | 90 µg/mL (≈ 170 µM) | – | 85 µg/mL (≈ 161 µM) | CCOC(=O)C1=C(C)NC(=S)NC1c1ccc(NC(=S)Nc2cc(C(F)(F)F)ccc2Cl)cc1 (stereo not given) | inactive | – | 96% | 78% | inactive | – | – | – | – | – |
| – | – | – | – | – | – | – | – | CCOC(=O)C1=C(C)NC(=S)NC1c1ccc(NC(=S)Nc2ccc(C)c(C)c2)cc1 (stereo not given) | inactive | inactive | 8% | 0% | inactive | inactive | inactive | inactive | inactive | inactive |

| Structure (SMILES) | MIC (Aspergillus flavus [3]) | MIC (Aspergillus niger [4]) | MIC (Candida albicans [5]) | MIC (Escherichia coli [6]) | MIC (Salmonella typhimurium [7]) | MIC (Staphylococcus aureus [8]) | MIC (Fusarium solani [11]) | MIC (Bacillus subtilis [12]) | Activity (Fusarium solani [1]) | Activity (Bacillus subtilis [2]) | inhibition at 10 µM (THP-1 [9]) | inhibition at 10 µM (THP-1 [10]) | Activity (Aspergillus flavus [13]) | Activity (Aspergillus niger [14]) | Activity (Candida albicans [15]) | Activity (Salmonella typhimurium [16]) | Activity (Escherichia coli [17]) | Activity (Staphylococcus aureus [18]) |
| --- | --- | --- | --- | --- | --- | --- | --- | --- | --- | --- | --- | --- | --- | --- | --- | --- | --- | --- |
| Clc1ccc(COC(Cn2ccnc2)c2ccc(Cl)cc2Cl)c(Cl)c1 (stereo not given) [MICONAZOLE] | 20 µg/mL (≈ 48.1 µM) | 20 µg/mL (≈ 48.1 µM) | 25 µg/mL (≈ 60.1 µM) | – | – | – | 15 µg/mL (≈ 36 µM) | – | – | – | – | – | – | – | – | – | – | – |
